Experiment in all cases: Greenhouse herbicidal activity assay, post-emergence
Holding throughout (assay type): in vivo
Settings in all cases: Post-emergence test, rate 150 g a.i./hm^2, grade by fresh weight inhibition rate

For one assay, the system named is Echinochloa crusgalli. The procedure, abridged:
(§1)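 Weeds and crops grown in pots of nutrient soil in a growth chamber to the 3-6 leaf stage, then foliar-sprayed and air-dried. Fresh weight inhibition scored 14-21 days after treatment and graded A (≥80%) through E (<20%).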

A further assay relates to Leptochloa chinensis. The method, boiled down: as §1
In the next assay the test system is Eclipta prostrata. The method, boiled down: as §1
Another assay has as its system Digitaria sanguinalis. The procedure, abridged: as §1
Another assay relates to Cyperus iria. The procedure, abridged:
as §1

As for `CCC(C)[S+]([O-])c1c(S(C)(=O)=O)ccc(C(=O)Nc2nnnn2C)c1Cl` (mixture of isomers) [Compound 1-19], the “Control efficacy grade, Echinochloa crusgalli” value with Echinochloa crusgalli is “A (Fresh weight inhibition rate≥80% to 100%)”. Further, in the assay on Leptochloa chinensis, the “Control efficacy grade, Leptochloa chinensis” value is listed as “A (Fresh weight inhibition rate≥80% to 100%)”. For the same molecule, the “Control efficacy grade, Eclipta prostrata” value in the assay on Eclipta prostrata is “A (Fresh weight inhibition rate≥80% to 100%)”. Besides, the “Control efficacy grade, Digitaria sanguinalis” value in the assay with Digitaria sanguinalis is recorded as “A (Fresh weight inhibition rate≥80% to 100%)”.
Turning to `CCC(C)[S+]([O-])c1c(S(C)(=O)=O)ccc(C(=O)Nc2ncnn2C)c1Cl` (mixture of isomers) [Compound 2-19], the “Control efficacy grade, Echinochloa crusgalli” value with Echinochloa crusgalli is on record as “A (Fresh weight inhibition rate≥80% to 100%)”. For the same molecule, the “Control efficacy grade, Leptochloa chinensis” value in the assay on Leptochloa chinensis is on record as “A (Fresh weight inhibition rate≥80% to 100%)”. For the same molecule, the “Control efficacy grade, Eclipta prostrata” value in the assay with Eclipta prostrata is “A (Fresh weight inhibition rate≥80% to 100%)”. For the same molecule, the “Control efficacy grade, Cyperus iria” value with Cyperus iria was “A (Fresh weight inhibition rate≥80% to 100%)”. For the same molecule, the “Control efficacy grade, Digitaria sanguinalis” value in the assay with Digitaria sanguinalis is “A (Fresh weight inhibition rate≥80% to 100%)”.
On to `CCC(C)[S+]([O-])c1c(S(C)(=O)=O)ccc(C(=O)Nc2nnc(C)o2)c1Cl` (mixture of isomers) [Compound 3-19], for which, in the assay with Echinochloa crusgalli, the “Control efficacy grade, Echinochloa crusgalli” value is reported as “A (Fresh weight inhibition rate≥80% to 100%)”. Moreover, the “Control efficacy grade, Leptochloa chinensis” value with Leptochloa chinensis is given as “A (Fresh weight inhibition rate≥80% to 100%)”. The “Control efficacy grade, Eclipta prostrata” value in the assay on Eclipta prostrata is recorded as “A (Fresh weight inhibition rate≥80% to 100%)”. In addition, the “Control efficacy grade, Cyperus iria” value with Cyperus iria is “A (Fresh weight inhibition rate≥80% to 100%)”. Moreover, the “Control efficacy grade, Digitaria sanguinalis” value in the assay on Digitaria sanguinalis was “A (Fresh weight inhibition rate≥80% to 100%)”.
`CCC(C)[S+]([O-])c1c(S(C)(=O)=O)ccc(C(=O)Nc2nnco2)c1Cl` (mixture of isomers) [Compound 3-285]: the “Control efficacy grade, Echinochloa crusgalli” value in the assay on Echinochloa crusgalli is on record as “A (Fresh weight inhibition rate≥80% to 100%)”. In addition, the “Control efficacy grade, Leptochloa chinensis” value in the assay on Leptochloa chinensis is on record as “A (Fresh weight inhibition rate≥80% to 100%)”. In addition, the “Control efficacy grade, Eclipta prostrata” value with Eclipta prostrata was “A (Fresh weight inhibition rate≥80% to 100%)”. For the same molecule, the “Control efficacy grade, Cyperus iria” value in the assay with Cyperus iria is on record as “A (Fresh weight inhibition rate≥80% to 100%)”. For the same molecule, the “Control efficacy grade, Digitaria sanguinalis” value in the assay with Digitaria sanguinalis is on record as “A (Fresh weight inhibition rate≥80% to 100%)”.
Regarding `CCc1nnc(NC(=O)c2ccc(S(C)(=O)=O)c([S+]([O-])C(C)CC)c2Cl)o1` (mixture of isomers) [Compound 3-401], the “Control efficacy grade, Echinochloa crusgalli” value in the assay with Echinochloa crusgalli is “A (Fresh weight inhibition rate≥80% to 100%)”. Further, in the assay on Leptochloa chinensis, the “Control efficacy grade, Leptochloa chinensis” value was “A (Fresh weight inhibition rate≥80% to 100%)”. In addition, in the assay with Eclipta prostrata, the “Control efficacy grade, Eclipta prostrata” value is “A (Fresh weight inhibition rate≥80% to 100%)”. In the assay with Cyperus iria, the “Control efficacy grade, Cyperus iria” value is listed as “A (Fresh weight inhibition rate≥80% to 100%)”. In addition, the “Control efficacy grade, Digitaria sanguinalis” value in the assay on Digitaria sanguinalis is “A (Fresh weight inhibition rate≥80% to 100%)”.
Consider `CCC(C)[S+]([O-])c1c(S(C)(=O)=O)ccc(C(=O)Nc2nnc(C3CC3)o2)c1Cl` (mixture of isomers) [Compound 3-633], for which the “Control efficacy grade, Echinochloa crusgalli” value in the assay with Echinochloa crusgalli is listed as “A (Fresh weight inhibition rate≥80% to 100%)”. Moreover, in the assay on Leptochloa chinensis, the “Control efficacy grade, Leptochloa chinensis” value is listed as “A (Fresh weight inhibition rate≥80% to 100%)”. Moreover, the “Control efficacy grade, Eclipta prostrata” value in the assay on Eclipta prostrata is “A (Fresh weight inhibition rate≥80% to 100%)”. The “Control efficacy grade, Cyperus iria” value in the assay with Cyperus iria is listed as “A (Fresh weight inhibition rate≥80% to 100%)”. Further, the “Control efficacy grade, Digitaria sanguinalis” value in the assay on Digitaria sanguinalis is listed as “A (Fresh weight inhibition rate≥80% to 100%)”.
With `CCC[S+]([O-])c1c(S(C)(=O)=O)ccc(C(=O)Nc2nnnn2C)c1Cl` (racemic) [Compound 1-2, 2-chloro-N-(1-methyl-1H-tetrazol-5-yl)-4-(methylsulfonyl)-3-(propylsulfinyl)benzamide], the pest or weed control at 150 g/ha with Echinochloa crusgalli (Echinochloa crus-galli, read-out: Control efficacy grade, Echinochloa crusgalli) was 80 to 100%; with Leptochloa chinensis (Dinebra chinensis, read-out: Control efficacy grade, Leptochloa chinensis), 80 to 100%; with Eclipta prostrata (Eclipta prostrata, read-out: Control efficacy grade, Eclipta prostrata), 80 to 100%; in the assay with Cyperus iria (Cyperus iria, read-out: Control efficacy grade, Cyperus iria), 80 to 100%; in the assay with Digitaria sanguinalis (Digitaria sanguinalis, read-out: Control efficacy grade, Digitaria sanguinalis) it was 80 to 100%.
Take `CC(C)[S+]([O-])c1c(S(C)(=O)=O)ccc(C(=O)Nc2nnnn2C)c1Cl` (racemic) [Compound 1-7]: the “Control efficacy grade, Echinochloa crusgalli” value with Echinochloa crusgalli is reported as “A (Fresh weight inhibition rate≥80% to 100%)”. Moreover, the “Control efficacy grade, Leptochloa chinensis” value in the assay on Leptochloa chinensis is given as “A (Fresh weight inhibition rate≥80% to 100%)”. The “Control efficacy grade, Eclipta prostrata” value in the assay with Eclipta prostrata is reported as “A (Fresh weight inhibition rate≥80% to 100%)”. Also, in the assay with Cyperus iria, the “Control efficacy grade, Cyperus iria” value was “A (Fresh weight inhibition rate≥80% to 100%)”. For the same molecule, the “Control efficacy grade, Digitaria sanguinalis” value in the assay with Digitaria sanguinalis was “A (Fresh weight inhibition rate≥80% to 100%)”.
As to `CCCC[S+]([O-])c1c(S(C)(=O)=O)ccc(C(=O)Nc2nnnn2C)c1Cl` (racemic) [Compound 1-12], the “Control efficacy grade, Echinochloa crusgalli” value in the assay on Echinochloa crusgalli is “A (Fresh weight inhibition rate≥80% to 100%)”. In addition, the “Control efficacy grade, Leptochloa chinensis” value with Leptochloa chinensis is “A (Fresh weight inhibition rate≥80% to 100%)”. Also, the “Control efficacy grade, Eclipta prostrata” value in the assay with Eclipta prostrata is reported as “A (Fresh weight inhibition rate≥80% to 100%)”. Also, the “Control efficacy grade, Cyperus iria” value with Cyperus iria was “A (Fresh weight inhibition rate≥80% to 100%)”. In the assay with Digitaria sanguinalis, the “Control efficacy grade, Digitaria sanguinalis” value was “A (Fresh weight inhibition rate≥80% to 100%)”.
As to `Cn1nnnc1NC(=O)c1ccc(S(C)(=O)=O)c([S+]([O-])CC2CC2)c1Cl` (racemic) [Compound 1-28], the “Control efficacy grade, Echinochloa crusgalli” value with Echinochloa crusgalli is given as “A (Fresh weight inhibition rate≥80% to 100%)”. In addition, in the assay on Leptochloa chinensis, the “Control efficacy grade, Leptochloa chinensis” value is “A (Fresh weight inhibition rate≥80% to 100%)”. In addition, the “Control efficacy grade, Eclipta prostrata” value with Eclipta prostrata is “A (Fresh weight inhibition rate≥80% to 100%)”. The “Control efficacy grade, Cyperus iria” value in the assay with Cyperus iria is listed as “A (Fresh weight inhibition rate≥80% to 100%)”. The “Control efficacy grade, Digitaria sanguinalis” value in the assay on Digitaria sanguinalis was “A (Fresh weight inhibition rate≥80% to 100%)”.
For `Cn1nnnc1NC(=O)c1ccc(S(C)(=O)=O)c([S+]([O-])C2CC2)c1Cl` (racemic) [Compound 1-33], the “Control efficacy grade, Echinochloa crusgalli” value in the assay with Echinochloa crusgalli is reported as “A (Fresh weight inhibition rate≥80% to 100%)”. In the assay on Leptochloa chinensis, the “Control efficacy grade, Leptochloa chinensis” value is listed as “A (Fresh weight inhibition rate≥80% to 100%)”. Besides, in the assay with Eclipta prostrata, the “Control efficacy grade, Eclipta prostrata” value is reported as “A (Fresh weight inhibition rate≥80% to 100%)”. Further, the “Control efficacy grade, Cyperus iria” value with Cyperus iria is listed as “A (Fresh weight inhibition rate≥80% to 100%)”. In the assay with Digitaria sanguinalis, the “Control efficacy grade, Digitaria sanguinalis” value is on record as “A (Fresh weight inhibition rate≥80% to 100%)”.
In the case of `Cn1nnnc1NC(=O)c1ccc(S(C)(=O)=O)c([S+]([O-])C2CCC2)c1Cl` (racemic) [Compound 1-38], in the assay with Echinochloa crusgalli, the “Control efficacy grade, Echinochloa crusgalli” value is on record as “A (Fresh weight inhibition rate≥80% to 100%)”. The “Control efficacy grade, Leptochloa chinensis” value with Leptochloa chinensis is on record as “B (Fresh weight inhibition rate≥260% to <80%)”. Also, the “Control efficacy grade, Eclipta prostrata” value with Eclipta prostrata is on record as “A (Fresh weight inhibition rate≥80% to 100%)”. Besides, the “Control efficacy grade, Cyperus iria” value with Cyperus iria is recorded as “A (Fresh weight inhibition rate≥80% to 100%)”. In addition, the “Control efficacy grade, Digitaria sanguinalis” value with Digitaria sanguinalis is “A (Fresh weight inhibition rate≥80% to 100%)”.
As for `Cn1nnnc1NC(=O)c1ccc(S(C)(=O)=O)c([S+]([O-])C2CCCCC2)c1Cl` (racemic) [Compound 1-48], in the assay with Echinochloa crusgalli, the “Control efficacy grade, Echinochloa crusgalli” value is reported as “A (Fresh weight inhibition rate≥80% to 100%)”. In addition, the “Control efficacy grade, Leptochloa chinensis” value with Leptochloa chinensis is “A (Fresh weight inhibition rate≥80% to 100%)”. For the same molecule, in the assay with Eclipta prostrata, the “Control efficacy grade, Eclipta prostrata” value is given as “A (Fresh weight inhibition rate≥80% to 100%)”. In the assay with Cyperus iria, the “Control efficacy grade, Cyperus iria” value was “A (Fresh weight inhibition rate≥80% to 100%)”. The “Control efficacy grade, Digitaria sanguinalis” value in the assay on Digitaria sanguinalis was “A (Fresh weight inhibition rate≥80% to 100%)”.
For the molecule `Cn1nnnc1NC(=O)c1ccc(S(C)(=O)=O)c([S+]([O-])CC(F)F)c1Cl` (racemic) [Compound 1-58], the “Control efficacy grade, Echinochloa crusgalli” value with Echinochloa crusgalli was “A (Fresh weight inhibition rate≥80% to 100%)”. For the same molecule, in the assay on Leptochloa chinensis, the “Control efficacy grade, Leptochloa chinensis” value was “A (Fresh weight inhibition rate≥80% to 100%)”. For the same molecule, the “Control efficacy grade, Eclipta prostrata” value in the assay on Eclipta prostrata is given as “A (Fresh weight inhibition rate≥80% to 100%)”. Further, the “Control efficacy grade, Cyperus iria” value in the assay with Cyperus iria is given as “B (Fresh weight inhibition rate≥260% to <80%)”. Moreover, in the assay with Digitaria sanguinalis, the “Control efficacy grade, Digitaria sanguinalis” value was “A (Fresh weight inhibition rate≥80% to 100%)”.
For `Cc1nonc1NC(=O)c1ccc(S(C)(=O)=O)c([S+]([O-])C(C)C)c1Cl` (racemic) [Compound 4-7], the “Control efficacy grade, Echinochloa crusgalli” value in the assay on Echinochloa crusgalli is given as “A (Fresh weight inhibition rate≥80% to 100%)”. For the same molecule, in the assay on Leptochloa chinensis, the “Control efficacy grade, Leptochloa chinensis” value is recorded as “A (Fresh weight inhibition rate≥80% to 100%)”. In addition, the “Control efficacy grade, Eclipta prostrata” value with Eclipta prostrata is “A (Fresh weight inhibition rate≥80% to 100%)”. The “Control efficacy grade, Digitaria sanguinalis” value in the assay on Digitaria sanguinalis is given as “B (Fresh weight inhibition rate≥260% to <80%)”.
In the case of `Cn1ncnc1NC(=O)c1ccc(S(C)(=O)=O)c(SC2CC2)c1Cl` [Compound 2-32], the “Control efficacy grade, Echinochloa crusgalli” value in the assay on Echinochloa crusgalli is “A (Fresh weight inhibition rate≥80% to 100%)”. Also, the “Control efficacy grade, Leptochloa chinensis” value in the assay with Leptochloa chinensis is “A (Fresh weight inhibition rate≥80% to 100%)”. In the assay on Eclipta prostrata, the “Control efficacy grade, Eclipta prostrata” value is “A (Fresh weight inhibition rate≥80% to 100%)”. For the same molecule, the “Control efficacy grade, Digitaria sanguinalis” value with Digitaria sanguinalis is “A (Fresh weight inhibition rate≥80% to 100%)”.

These data come from patent US20250223268A1, “4-Methylsulfonylbenzamide Compound, Preparation Method, Herbicidal Composition And Use” (Jiangsu Flag Chemical Industry Co., Ltd., priority 2022, published 2025).
